Data published in PubChem BioAssay AID2387 (Broad Institute, 2010).
pEC50: −log10 of the molar value. Activity calls are given as the source filed them.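 The calls were made as follows: active = fitted EC50 no more than tenfold above the highest tested concentration; inconclusive = flat fit with 30 to 70% signal loss, or poor fit; inactive = the rest.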

Tested on: Candida albicans CaCi-2 growth (no fluconazole), Alamar Blue
Assay: C. albicans growth inhibition without fluconazole, dose response, counter-screen for fluconazole resistance reversal project, CaCi-2 strain, Alamar Blue fluorescence (AID 2387)
Conditions: C. albicans CaCi-2 (fluconazole-resistant clinical isolate) growth without fluconazole, 48 h

| Compound | EC50 | pEC50 |
| --- | --- | --- |
| COc1cccc(-c2nc(NC(C)C)c3ccccc3n2)c1O | > 16 µM (inactive) | – |
| Nc1nonc1-n1nnc(C(=O)N/N=C/c2cc(Br)ccc2O)c1CNc1ccccc1 | > 16 µM (inactive) | – |
| COc1ccc(C(=O)NC(=S)NNC(=O)c2ccc(C)cc2)cc1 | > 15 µM (inactive) | – |
| O=C(Oc1c(CN2CCOCC2)cc(Cl)c2cccnc12)c1ccc(F)cc1 | > 16 µM (inactive) | – |
| CCCCc1c(O)nc(SCC(=O)Nc2cccc3ccccc23)n(-c2ccccc2OC)c1=O | > 16 µM (inactive) | – |
| CN1/C(=C/C(=O)c2cccs2)Sc2ccccc21 | > 15 µM (inactive) | – |
| CC1CCC(C(C)C)C(OC(=O)Cn2c(-c3ccc(Br)cc3)[n+](C)c3ccccc32)C1 (configuration not stated) | > 16 µM (inactive) | – |
| CC(C)(C)c1ccc(OCCCC(=O)NNC(=O)c2ccccc2O)cc1 | > 16 µM (inactive) | – |
| O=[N+]([O-])c1ccc(O)c(Nc2ncnc3ccc(Br)cc23)c1 | > 16 µM (inactive) | – |
| C/C(=N\NC(=O)c1cc(C2CC2)nc2ccccc12)c1ccc(O)cc1O | > 16 µM (inactive) | – |
| Nc1[nH]c(=O)ncc1F | > 16 µM (inactive) | – |
| O=C(NNC(=S)NC(=O)c1ccc(Br)cc1)c1ccc([N+](=O)[O-])cc1 | > 16 µM (inactive) | – |
| O=C(Oc1c(Cl)cc(Cl)c2cccnc12)c1ccco1 | – | 5.93 |
| O=C(Nc1nnc(-c2ccc3c(c2)CCCC3)o1)c1ccccc1 | – | 5.01 |
| CCC(=O)NC(c1cccs1)c1cc([N+](=O)[O-])c2cccnc2c1O (configuration not stated) | > 15 µM (inactive) | – |
| Oc1c(CN2CCN(c3ccccc3)CC2)cc(Br)c2cccnc12 | – | 5.68 |
| O=C(Nc1nnc(C2COc3ccccc3O2)o1)c1ccc(F)cc1 (configuration not stated) | > 15 µM (inactive) | – |
| CS/C(=N\S(=O)(=O)c1cccs1)Nc1ccc(Br)cc1F | > 15 µM (inactive) | – |
| CCOC(=O)c1c(-c2ccccc2Cl)cn2ccccc12 | > 16 µM (inactive) | – |
| Cc1cc(O)ccc1NC(=S)NC(=O)c1cncc(Br)c1 | > 16 µM (inactive) | – |
| CCC(=O)NC(c1cccs1)c1cc(Cl)c2cccnc2c1O (configuration not stated) | – | 4.79 |
| COc1ccc(N(CC(=O)Nc2ccccc2C(N)=O)S(=O)(=O)c2ccc(C)c([N+](=O)[O-])c2)cc1 | > 16 µM (inactive) | – |
| CCc1nnc(NC(=O)CN2CCN(c3nc(-c4ccccc4)cs3)CC2)s1 | > 15 µM (inactive) | – |
| COCCn1c(=O)[nH]c(=O)c2cc(C(=O)c3cc(Cl)ccc3O)cnc21 | > 16 µM (inactive) | – |
| O=C(c1cc2ccccc2cc1O)N1CCN(c2ccccc2O)CC1 | > 15 µM (inactive) | – |
| CCC(C)c1ccc(O)c(NC(=S)NC(=O)c2cccnc2)c1 (configuration not stated) | > 15 µM (inactive) | – |

| Compound | EC50 | pEC50 |
| --- | --- | --- |
| CC(=O)N(O)CCCCCNC(=O)CCC(=O)N(O)CCCCCNC(=O)CCC(=O)N(O)CCCCCN | > 15 µM (inactive) | – |
| C=CCn1c(N)nc2ccccc21 | > 16 µM (inactive) | – |
| O=C(O)c1ccccc1-c1ccccc1C(=O)Nc1cccc(-c2nc3ccccc3o2)c1 | > 15 µM (inactive) | – |
| N#Cc1cc(C#N)c(N2CCN(c3cccc(Cl)n3)CC2)nc1N | > 15 µM (inactive) | – |
| Cc1ccc(-n2nc(C)c3c(C)cc(=O)[nH]c32)cc1 | > 15 µM (inactive) | – |
| CN1CCN(C(c2ccc(C(F)(F)F)cc2)c2ccc3cccnc3c2O)CC1 (configuration not stated) | – | 5.08 |
| CCOc1ccccc1NC(=O)C(=O)N/N=C/c1cc(Br)ccc1O | > 16 µM (inactive) | – |
| Cc1cccc(C(=O)CC(=O)c2cc(Cl)ccc2O)c1 | > 15 µM (inactive) | – |
| Cc1ccc(/C=C/C(=O)c2ccccc(=O)c2O)cc1C | – | 4.89 |
| CCN(CC)c1ccc2cc(S(=O)(=O)c3ccc(C)cc3)c(=O)oc2c1 | > 16 µM (inactive) | – |
| O=C(Nc1nc2ccc(SC(F)F)cc2s1)c1ccc(NS(=O)(=O)c2ccc(F)c(F)c2)cc1 | > 15 µM (inactive) | – |
| Cc1cc(N/N=C/c2c(O)ccc3ccccc23)nc(-c2ccccc2O)n1 | > 16 µM (inactive) | – |
| Cc1ccc(NC(=O)c2sc3nc(N)c(C#N)cc3c2N)cc1 | > 15 µM (inactive) | – |
| O=C(CCS(=O)(=O)c1ccc(Cl)cc1)Nc1nc(-c2ccncc2)cs1 | > 15 µM (inactive) | – |
| Oc1ccc(N=Nc2ccc3c(c2)OCCO3)c2cccnc12 | – | 5.44 |
| CCCC(=O)NC(c1ccc(OC)cc1)c1ccc2cccnc2c1O (configuration not stated) | > 16 µM (inactive) | – |
| Cc1nn(-c2ccccc2)c(Cl)c1/C=C/C(=O)c1ccc(O)cc1 | > 16 µM (inactive) | – |
| Cc1ccc(NC(=O)c2ccccc2NS(=O)(=O)c2ccc(Cl)s2)cc1 | > 15 µM (inactive) | – |
| O=C(N/N=C/c1cc([N+](=O)[O-])ccc1O)c1ccc(COc2ccc3c(c2)CCC3)o1 | – | 4.91 |
| C=CCc1c(C)c(C#N)c2nc3ccccc3n2c1NCCN(C)C | > 15 µM (inactive) | – |
| Cc1ccc(-c2nc3c(Cl)cc(Cl)cc3c(=O)n2O)cc1 | – | 4.94 |
| Oc1c(C(c2ccc(Cl)cc2)N2CCCC2)cc(Cl)c2cccnc12 (configuration not stated) | – | 5.50 |
| CCC(=O)NC(c1ccc(OC)cc1)c1cc(Cl)c2cccnc2c1O (configuration not stated) | > 16 µM (inactive) | – |
| COc1ccc(C(c2c(O)ccc3ccccc23)N2CCOCC2)c(OC)c1 (configuration not stated) | > 16 µM (inactive) | – |
| CCCCCCC[n+]1ccc(-c2cc[n+](CCCCCCC)cc2)cc1 | – | 5.78 |
| CCCCCCCNC(=O)COc1ccc2c(c1)C(=O)CC(C)(C)O2 | > 16 µM (inactive) | – |

| Compound | EC50 | pEC50 |
| --- | --- | --- |
| O=C(N/N=C/c1sc2ccccc2c1O)c1cccc2ccccc12 | > 16 µM (inactive) | – |
| CCCOc1ccc(C(=O)NNC(=S)NC(C)=O)cc1 | > 16 µM (inactive) | – |
| CCN(Cc1ccccc1)S(=O)(=O)c1ccc(C(=O)Nc2nnc(-c3ccccc3OC)o2)cc1 | > 15 µM (inactive) | – |
| CN(C)c1cc(N/N=C/c2ccc(Cl)cc2)nc(N(C)C)n1 | > 16 µM (inactive) | – |
| CC(C)n1cc(/C=C/c2cc[n+](C)cc2)c2ccccc21 | > 15 µM (inactive) | – |
| CCSc1nnc(-c2ccc(C)cc2)c2ccccc12 | > 15 µM (inactive) | – |
| Clc1ccc2c(c1)C(c1cccs1)=NNC(c1cccnc1)=N2 | > 15 µM (inactive) | – |
| O=C(Oc1cc2oc(=O)c3c(c2cc1Cl)CCCC3)c1cccs1 | > 15 µM (inactive) | – |
| CC(Nc1ncnc2ccccc12)c1ccccc1 (configuration not stated) | > 16 µM (inactive) | – |
| CCC(=O)NC(c1ccc(C)cc1)c1cc([N+](=O)[O-])c2cccnc2c1O (configuration not stated) | > 15 µM (inactive) | – |
| CCN(CC)S(=O)(=O)c1ccc(N/N=C/c2ccc(O)cc2O)nc1 | > 16 µM (inactive) | – |
| CCCCCCc1c(C)nc(-n2[nH]c(C)c(CCO)c2=O)[nH]c1=O | > 16 µM (inactive) | – |
| c1ccc2c(c1)OCC(CNc1ncnc3sccc13)O2 (configuration not stated) | > 15 µM (inactive) | – |
| CCc1cc(=S)n2c([nH]c3ccccc32)c1C#N | > 15 µM (inactive) | – |
| CC(CC(=O)Nc1ncc([N+](=O)[O-])s1)c1ccccc1 (configuration not stated) | > 16 µM (inactive) | – |
| O=[N+]([O-])c1cc(O)c2ncccc2c1 | – | 4.91 |
| CCCC(=O)NC(c1ccc(Cl)cc1)c1ccc2cccnc2c1O (configuration not stated) | – | 4.79 |
| C=CCNC(=S)N/N=C(\C)c1ccccn1 | – | 5.30 |
| O=C(Nc1nnc(-c2ccco2)o1)c1cccc(Cl)c1 | > 15 µM (inactive) | – |
| CC1CCN(Cc2c(C(=O)N/N=C/c3cc(Cl)ccc3O)nnn2-c2nonc2N)CC1 | > 15 µM (inactive) | – |
| CCN1/C(=C/C=C/c2oc3ccc(-c4ccccc4)cc3[n+]2CC)Oc2ccc(-c3ccccc3)cc21 | – | 5.18 |
| CC(=O)NC1CCCN(O)C(=O)/C=C(\C)CCOC(=O)C(NC(C)=O)CCCN(O)C(=O)/C=C(\C)CCOC(=O)C(NC(C)=O)CCCN(O)C(=O)/C=C(\C)CCOC1=O (configuration not stated) | – | 5.69 |
| Cc1ccc(-n2c(O)c(C=Nc3ccccc3-c3n[nH]c(=S)[nH]c3=O)c3ccccc3c2=O)cc1C | > 16 µM (inactive) | – |
| CS(=O)(=O)NN1C(=O)c2ccccc2NC1c1cccc2cccnc12 (configuration not stated) | > 16 µM (inactive) | – |
| CCc1nnc(NC(=O)CSc2nc(SC)ns2)s1 | > 16 µM (inactive) | – |
| C(C#CCCCCCCCCC[n+]1ccccc1)#CCCCCCCCCC[n+]1ccccc1 | – | 5.60 |

| Compound | EC50 | pEC50 |
| --- | --- | --- |
| CNC(=O)Nc1cc(C(F)(F)F)cc(C(F)(F)F)c1 | > 15 µM (inactive) | – |
| [O-][n+]1cccc2c(Br)cc(Br)c(O)c21 | – | 4.78 |
| COc1ccc(CCNc2ncnc3sc(C)cc23)cc1OC | > 15 µM (inactive) | – |
| CN1CCN(C(c2ccc(C(F)(F)F)cc2)c2cc(Cl)c3cccnc3c2O)CC1 (configuration not stated) | – | 5.61 |
| Cc1cc(NC(c2ccc(Cl)cc2)c2ccc3cccnc3c2O)no1 (configuration not stated) | – | 5.45 |
| COc1cccc(N=Nc2ccc(O)c3ncccc23)c1 | – | 5.90 |
| Cc1ccc(C)c(S(=O)(=O)N2CCN(Cc3ccc(O)c4ncccc34)CC2)c1 | > 16 µM (inactive) | – |
| O=C(Oc1c(Cl)cc(Cl)c2cccnc12)c1cccs1 | – | 5.85 |
| O=c1ccc(N=Nc2ccccc2)ccc1O | – | 5.41 |
| COc1ccc(C(=O)NNC(=S)NC(=O)c2ccc(Cl)cc2)cc1 | > 16 µM (inactive) | – |
| CCCCC(=O)NC(c1ccccc1)c1ccc2cccnc2c1O (configuration not stated) | > 15 µM (inactive) | – |
| Fc1cccc(-n2cc(-c3ccccc3)c3c(=S)nc[nH]c32)c1 | > 15 µM (inactive) | – |
| Cc1c(OCC(=O)NCC(O)c2ccccc2)ccc2c(-c3ccccc3)cc(=O)oc12 (configuration not stated) | > 16 µM (inactive) | – |
| CCN(CC)c1ccc(/C=N/NC(=O)c2cccc(S(=O)(=O)N3CCOCC3)c2)c(O)c1 | > 16 µM (inactive) | – |
| COc1ccc(C2C(C#N)=C(N)Oc3c2ccc2cccnc32)cc1OC (configuration not stated) | > 15 µM (inactive) | – |
| Cc1ccc(C(=O)c2coc3c2C(=O)C(=O)c2ccccc2-3)cc1 | – | 4.97 |
| CCOC(=O)c1c(NC(=S)NCC2CCCO2)sc(C)c1C (configuration not stated) | > 16 µM (inactive) | – |
| Cc1ccccc1C(=O)O/N=C/c1c(N2CCOCC2)n(C)c2ccccc12 | > 16 µM (inactive) | – |
| Cc1cccc(/C=C/C(=O)c2cc(Br)ccc(=O)c2O)c1 | – | 4.84 |
| CCCCOc1cccc(C2C(C(=O)c3ccc(C)o3)=C(O)C(=O)N2Cc2ccco2)c1 (configuration not stated) | > 15 µM (inactive) | – |
| COc1cccc(/C=N/NC(=O)c2c(C)nc3ccc(Br)cn23)c1O | > 16 µM (inactive) | – |
| O=C(NNC(=S)Nc1ccc(Cl)c(Cl)c1)c1ccccn1 | – | 4.95 |
| O=C(N/N=C/c1ccccc1O)c1cccc(C(F)(F)F)c1 | > 15 µM (inactive) | – |
| CCN(CC)S(=O)(=O)c1cc(OC)ccc1N=Nc1ccc(O)c2ncccc12 | – | 5.16 |
